Measurements: patent US7662825B2, “N-pyrazinyl-phenylsulphonamides and their use in the treatment of chemokine mediated diseases” (AstraZeneca AB, priority 2002, dated 2010)

SMILES | melting point
COc1nc(COc2cnccn2)cnc1NS(=O)(=O)c1cccc(Cl)c1Cl [Example 140, 2,3-Dichloro-N-{3-methoxy-5-[(pyrazinyloxy)methyl]-2-pyrazinyl}benzenesulphonamide] | 155 °C (dec.)
O=S(=O)(Nc1ncc(Cl)nc1OCc1cccc(CO)n1)c1cccc(Cl)c1Cl [Example 143, 2,3-Dichloro-N-[5-chloro-3-{[6-(hydroxymethyl)-2-pyridinyl]methoxy}-2-pyrazinyl]benzenesulphonamide] | 220 °C
CNCc1cccc(COc2nc(Cl)cnc2NS(=O)(=O)c2cccc(Cl)c2Cl)c1 [Example 107, 2,3-Dichloro-N-[5-chloro-3-(3-methylaminomethylphenylmethoxy)-2-pyrazinyl]benzenesulphonamide] | 167 to 168 °C
COc1nc(CO)c(C)nc1NS(=O)(=O)c1cccc(Cl)c1Cl [Example 120, 2,3-Dichloro-N-[5-(hydroxymethyl)-3-methoxy-6-methyl-2-pyrazinyl)benzenesulphonamide] | 175 to 177 °C
O=S(=O)(Nc1ncc(Cl)nc1OCc1ccncc1)c1cccc(Cl)c1Cl [Example 87, 2,3-Dichloro-N-[5-chloro-3-(4-pyridinylmethoxy)-2-pyrazinyl]benzenesulphonamide] | 226 to 229 °C (dec.)
COc1ccc(COc2nccnc2NS(=O)(=O)c2cccc(Cl)c2Cl)cn1 [Example 128, 2,3-Dichloro-N-{3-[(6-methoxy-3-pyridinyl)methoxy]-2-pyrazinyl}benzenesulphonamide] | 187 to 188 °C
Nc1nc(COc2nc(Cl)cnc2NS(=O)(=O)c2cccc(Cl)c2Cl)co1 [Example 212, N-[3-[(2-amino-4-oxazolyl)methoxy]-5-chloro-2-pyrazinyl]-2,3-dichlorobenzenesulphonamide] | 137 °C
COc1nc(Oc2ccc(C(=O)O)cc2)cnc1NS(=O)(=O)c1cccc(Cl)c1Cl [Example 73, 4-[5-(2,3-Dichlorobenzenesulphonylamino)-6-methoxy-2-pyrazinyloxy]benzoic acid] | 186 to 187 °C
Cc1cnc(NS(=O)(=O)c2cccc(Cl)c2Cl)c(OCc2cccnn2)n1 [Example 27, 2,3-Dichloro-N-[5-methyl-3-(3-pyridazinylmethoxy)-2-pyrazinyl]benzenesulphonamide] | 119 to 124 °C
COc1nc(SCCN)c(Cl)nc1NS(=O)(=O)c1cccc(Cl)c1Cl [Example 116, N-{5-[(2-Aminoethyl)thio]-6-chloro-3-methoxy-2-pyrazinyl}-2,3-dichlorobenzenesulfonamide] | 185 to 190 °C
C#CCOc1nccnc1NS(=O)(=O)c1cccc(Cl)c1Cl [Example 189, 2,3-Dichloro-N-[3-(2-propynyloxy)-2-pyrazinyl)benzenesulphonamide] | 153 to 154 °C
N#Cc1cnc(NS(=O)(=O)c2cccc(Cl)c2Cl)c(OCc2cccnc2)n1 [Example 78, 2,3-Dichloro-N-[5-cyano-3-(3-pyridinylmethoxy)-2-pyrazinyl]benzenesulphonamide] | 222 to 224 °C
COc1nc(Cl)c(Cl)nc1NS(=O)(=O)c1ccc(Cl)cc1Cl [Example 63, 2,4-Dichloro-N-(5,6-dichloro-3-methoxy-2-pyrazinyl)benzenesulphonamide] | 171 to 172 °C
Cc1cnc(NS(=O)(=O)c2cccc(Cl)c2Cl)c(OCc2ccncc2)n1 [Example 25, 2,3-Dichloro-N-[5-methyl-3-(4-pyridinylmethoxy)-2-pyrazinyl]benzenesulphonamide] | 183 to 184 °C
COC(=O)c1cnc(OC)c(NS(=O)(=O)c2cccc(Cl)c2Cl)n1 [Example 201, 6-(2,3-Dichlorophenylsulphonylamino)-5-methoxy-2-pyrazinecarboxylic acid, methyl ester] | 90 to 92 °C
COCCNc1nc(OC)c(NS(=O)(=O)c2cccc(Cl)c2Cl)nc1Cl [Example 75, 2,3-Dichloro-N-{6-chloro-3-methoxy-5-([2-methoxyethyl)amino]-2-pyrazinyl}benzenesulphonamide] | 177 to 178 °C
NCc1ccc(COc2nccnc2NS(=O)(=O)c2cccc(Cl)c2Cl)o1 [Example 197, N-(3-(5-Aminomethyl-2-furanylmethoxy)-2-pyrazinyl)-2,3-dichlorobenzenesulphonamide] | 199 to 201 °C
O=C(O)c1cccc(COc2nc(Cl)cnc2NS(=O)(=O)c2cccc(Cl)c2Cl)c1 [Example 105, 3-[6-Chloro-3-(2,3-dichlorobenzenesulphonylamino)-2-pyrazinyloxymethyl]benzoic acid] | 218 to 224 °C (dec.)
Cc1ncccc1COc1nc(Cl)cnc1NS(=O)(=O)c1cccc(Cl)c1Cl [Example 92, 2,3-Dichloro-N-[5-chloro-3-(2-methyl-3-pyridinylmethoxy)-2-pyrazinyl]benzenesulphonamide] | 214 to 216 °C (dec.)

Continued, values first:

melting point | SMILES
190 to 191.5 °C | COc1nc(Br)cnc1NS(=O)(=O)c1ccccc1C#N [Example 184, N-(5-Bromo-3-methoxypyrazinyl)-2-cyanobenzenesulphonamide]
248 to 249 °C | COc1nc(-n2cncn2)cnc1NS(=O)(=O)c1cccc(Cl)c1Cl [Example 167, 2,3-Dichloro-N-[3-methoxy-5-([1,2,4]-1-triazolyl)-2-pyrazinyl]benzenesulphonamide]
165 to 166 °C | COc1nc(C)c(C)nc1NS(=O)(=O)c1cccc(Cl)c1Cl [Example 65, 2,3-Dichloro-N-(3-methoxy-5,6-dimethyl-2-pyrazinyl)benzenesulphonamide]
177 to 178 °C | COc1nc(Cl)c(Cl)nc1NS(=O)(=O)c1cccc(Cl)c1C [Example 58, 3-Chloro-N-(5,6-dichloro-3-methoxy-2-pyrazinyl)-2-methylbenzenesulphonamide]
192 to 193 °C | COc1nc(C(C)(C)O)cnc1NS(=O)(=O)c1cccc(Cl)c1Cl [Example 114, 2,3-Dichloro-N-[5-(1-hydroxy-1-methylethyl)-3-methoxy-2-pyrazinyl]benzenesulphonamide]
148 to 149 °C | COc1nc(C)cnc1NS(=O)(=O)c1ccc(Cl)c(Cl)c1 [Example 48, 3,4-Dichloro-N-(3-methoxy-5-methyl-2-pyrazinyl)benezenesulphonamide]
179 to 180 °C | COc1nc(Cl)cnc1NS(=O)(=O)c1ccc(Cl)cc1 [Example 53, 4-Chloro-N-(5-chloro-3-methoxy-2-pyrazinyl)benzenesulphonamide]
167 to 168 °C | COc1nc(N2CCOCC2)cnc1NS(=O)(=O)c1cccc(Cl)c1Cl [Example 55, 2,3-Dichloro-N-[3-methoxy-5-(4-morpholinyl)-2-pyrazinyl]benzenesulphonamide]
153 to 155 °C | COc1ncc(CO)nc1NS(=O)(=O)c1cccc(Cl)c1Cl [Example 202, 2,3-Dichloro-N-[6-(hydroxymethyl)-3-methoxy-2-pyrazinyl]benzenesulphonamide]
199 to 200 °C | COc1nc(-c2cnccn2)cnc1NS(=O)(=O)c1cccc(Cl)c1Cl [Example 72, 2,3-Dichloro-N-[6-methoxy-5-([2,2′]bipyrazinylyl)]benzenesulphonamide]
155 to 156 °C | COc1nc(C)cnc1NS(=O)(=O)c1ccc(Cl)cc1 [Example 46, 4-Chloro-N-(3-methoxy-5-methyl-2-pyrazinyl)benezenesulphonamide]
204 to 206 °C | O=S(=O)(Nc1ncc(Br)nc1OCc1cccnc1)c1cccc(Cl)c1Cl [Example 34, N-[5-Bromo-3-(3-pyridinylmethoxy)-2-pyrazinyl]-2,3-dichlorobenzenesulphonamide]
129 to 130 °C | COc1nc(Cl)cnc1NS(=O)(=O)c1cccc(Cl)c1 [Example 52, 3-Chloro-N-(5-chloro-3-methoxy-2-pyrazinyl)benzenesulphonamide]
200 to 205 °C | COc1nc(OCCN)cnc1NS(=O)(=O)c1cccc(Cl)c1Cl [Example 115, N-[5-(2-Aminoethoxy)-3-methoxy-2-pyrazinyl]-2,3-dichlorobenzenesulphonamide]
117 to 118 °C | COc1nc(C(F)F)cnc1NS(=O)(=O)c1cccc(Cl)c1Cl [Example 206, 2,3-Dichloro-N-(5-difluoromethyl-3-methoxy-2-pyrazinyl)benzenesulphonamide]
150 to 152 °C | CNC(=O)CSc1cnc(NS(=O)(=O)c2cccc(Cl)c2Cl)c(OC)n1 [Example 168, 2-[5-(2,3-Dichlorobenzenesulphonylamino)-6methoxy-2-pyrazinylsulphanyl]-N-methylacetamide]
119 to 120 °C | COc1nc(SCc2ccccc2Cl)cnc1NS(=O)(=O)c1cccc(Cl)c1Cl [Example 84, 2,3-Dichloro-N-[5-(2-chlorobenzylsulphanyl)-3-methoxy-2-pyrazinyl]benzenesulphonamide]
123 to 125 °C | COc1nc(C)cnc1NS(=O)(=O)c1cccc(Cl)c1 [Example 45, 3-Chloro-N-(3-methoxy-5-methyl-2-pyrazinyl)benezenesulphonamide]
189 to 190 °C | COc1nc(SCCN)cnc1NS(=O)(=O)c1cccc(Cl)c1Cl [Example 173, N-[5-(2-Aminoethylsulphanyl)-3-methoxy-2-pyrazinyl]-2,3-dichlorobenzenesulphonamide]
169 to 170 °C | Cn1cc(COc2nc(Br)cnc2NS(=O)(=O)c2cccc(Cl)c2Cl)ccc1=O [Example 32, N-[5-Bromo-3-(1-methyl-6-oxo-1,6-dihydro-3-pyridinylmethoxy)-2-pyrazinyl]-2,3-dichlorobenzenesulphonamide]
150 to 152 °C | COc1nc(C)cnc1NS(=O)(=O)c1ccccc1F [Example 13, N-(3-Methoxy-5-methyl-2-pyrazinyl)-2-fluorobenzenesulphonamide]
179 to 180 °C | COc1nc(N2CCCC2)cnc1NS(=O)(=O)c1cccc(Cl)c1Cl [Example 57]
156 to 157 °C | COc1nc(Br)cnc1NS(=O)(=O)c1ccccc1OC(F)(F)F [Example 49, N-(5-Bromo-3-methoxy-2-pyrazinyl)-2-trifluoromethoxybenezenesulphonamide]
